From publication PMC7994582 (Communications Biology, 2021)
Where a SMILES comes first, the peptide text is derived from it. [ ]: non-standard residue; d: D form. pS = N[C@@H](COP(=O)(O)O)C(=O)O

Legend:
Ess1 [1] = biological target: T1, Ess1 (Saccharomyces cerevisiae, UniProt P22696, R8S); experiment: Competition fluorescence anisotropy (unlabeled CTD peptides vs. FITC-1R-CTD for Ess1 binding); conditions: for Normalized Anisotropy: competition vs FITC-1R-CTD, mean
T1 construct: Full-length Ess1 or Ess1 C120S plasmid was used to transform E. coli cells; 6xHis (cleaved yes); made in house; host or cells: E. coli Rosetta II (DE3) pLysS, isotope-labeled M9 minimal media
T1 sequence (P22696 whole entry R8S): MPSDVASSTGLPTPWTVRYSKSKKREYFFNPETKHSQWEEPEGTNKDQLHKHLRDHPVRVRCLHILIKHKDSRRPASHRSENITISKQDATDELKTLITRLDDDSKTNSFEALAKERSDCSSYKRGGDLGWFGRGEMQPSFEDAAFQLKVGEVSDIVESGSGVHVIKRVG
Method: A 1 repeat CTD peptide labeled with FITC at its N-terminus was used as a probe (FITC-1R, Table 2). […] Each point represents an average (±SD) of n = 2 or 3 from independent experiments.
Fluorescence anisotropy measurements were performed in a Hidex Sense microplate reader using an excitation wavelength of 485 nm and an emission wavelength of 535 nm. Measurements were performed in 20 mM Tris pH 8.0, 3 mM TCEP buffer. […] Competition data was used to calculate IC50 values to compare the affinity differences between all five substrates (Eq. (1)).1 Competitionmodel:f1=min+max−min/1+x/IC50∧−Hillslope

Ess1 [2] = biological target: T1, Ess1; experiment: NMR 1H-15N HSQC titration, Kd determination (single-site model); type: binding
Method: Binding was monitored by recording ^1H–^15N HSQC spectra at different peptide to protein ratios. For each backbone amide, we assumed that the CSP was a weighted average between the free (Δδ = 0) and ligand-bound (Δδ = Δδbound) states, such that Δδ = Δδbound * [PL]/[Ptotal]. Here, [PL] and [Ptotal] represent the ligand-bound protein concentration, and Ptotal is the total protein concentration of Ess1. The CSP for each amide was calculated using the equation CSP=ΔδH^2+ΔδN/5^2 where ΔδH and ΔδN represent the change in chemical shift in the ^1H and ^15N dimensions, such that Δδ = 0 when calculating the CSP for the reference spectrum (in the absence of ligand). To obtain the dissociation binding constant, Kd, we used the single-site binding equation, PL=(([Ptotal]+[Ltotal]+Kd)−([Ptotal]+[Ltotal]+Kd)^2−4*[Ptotal]*[Ltotal])/2 , where [Ptotal] and [Ltotal] are total protein (Ess1) and ligand (CTD peptide) concentrations, respectively. Fitting was performed using an in-house Matlab script. […] Errors represent standard deviation of residue-specific Kd values.

[3] = biological target: 1R CTD peptide CTD 1 repeat (Saccharomyces cerevisiae) (UniProt P04050); conditions: cited from earlier work
1R CTD peptide CTD 1 repeat (Saccharomyces cerevisiae), sequence (P04050 whole entry, looked up, tested part not stated): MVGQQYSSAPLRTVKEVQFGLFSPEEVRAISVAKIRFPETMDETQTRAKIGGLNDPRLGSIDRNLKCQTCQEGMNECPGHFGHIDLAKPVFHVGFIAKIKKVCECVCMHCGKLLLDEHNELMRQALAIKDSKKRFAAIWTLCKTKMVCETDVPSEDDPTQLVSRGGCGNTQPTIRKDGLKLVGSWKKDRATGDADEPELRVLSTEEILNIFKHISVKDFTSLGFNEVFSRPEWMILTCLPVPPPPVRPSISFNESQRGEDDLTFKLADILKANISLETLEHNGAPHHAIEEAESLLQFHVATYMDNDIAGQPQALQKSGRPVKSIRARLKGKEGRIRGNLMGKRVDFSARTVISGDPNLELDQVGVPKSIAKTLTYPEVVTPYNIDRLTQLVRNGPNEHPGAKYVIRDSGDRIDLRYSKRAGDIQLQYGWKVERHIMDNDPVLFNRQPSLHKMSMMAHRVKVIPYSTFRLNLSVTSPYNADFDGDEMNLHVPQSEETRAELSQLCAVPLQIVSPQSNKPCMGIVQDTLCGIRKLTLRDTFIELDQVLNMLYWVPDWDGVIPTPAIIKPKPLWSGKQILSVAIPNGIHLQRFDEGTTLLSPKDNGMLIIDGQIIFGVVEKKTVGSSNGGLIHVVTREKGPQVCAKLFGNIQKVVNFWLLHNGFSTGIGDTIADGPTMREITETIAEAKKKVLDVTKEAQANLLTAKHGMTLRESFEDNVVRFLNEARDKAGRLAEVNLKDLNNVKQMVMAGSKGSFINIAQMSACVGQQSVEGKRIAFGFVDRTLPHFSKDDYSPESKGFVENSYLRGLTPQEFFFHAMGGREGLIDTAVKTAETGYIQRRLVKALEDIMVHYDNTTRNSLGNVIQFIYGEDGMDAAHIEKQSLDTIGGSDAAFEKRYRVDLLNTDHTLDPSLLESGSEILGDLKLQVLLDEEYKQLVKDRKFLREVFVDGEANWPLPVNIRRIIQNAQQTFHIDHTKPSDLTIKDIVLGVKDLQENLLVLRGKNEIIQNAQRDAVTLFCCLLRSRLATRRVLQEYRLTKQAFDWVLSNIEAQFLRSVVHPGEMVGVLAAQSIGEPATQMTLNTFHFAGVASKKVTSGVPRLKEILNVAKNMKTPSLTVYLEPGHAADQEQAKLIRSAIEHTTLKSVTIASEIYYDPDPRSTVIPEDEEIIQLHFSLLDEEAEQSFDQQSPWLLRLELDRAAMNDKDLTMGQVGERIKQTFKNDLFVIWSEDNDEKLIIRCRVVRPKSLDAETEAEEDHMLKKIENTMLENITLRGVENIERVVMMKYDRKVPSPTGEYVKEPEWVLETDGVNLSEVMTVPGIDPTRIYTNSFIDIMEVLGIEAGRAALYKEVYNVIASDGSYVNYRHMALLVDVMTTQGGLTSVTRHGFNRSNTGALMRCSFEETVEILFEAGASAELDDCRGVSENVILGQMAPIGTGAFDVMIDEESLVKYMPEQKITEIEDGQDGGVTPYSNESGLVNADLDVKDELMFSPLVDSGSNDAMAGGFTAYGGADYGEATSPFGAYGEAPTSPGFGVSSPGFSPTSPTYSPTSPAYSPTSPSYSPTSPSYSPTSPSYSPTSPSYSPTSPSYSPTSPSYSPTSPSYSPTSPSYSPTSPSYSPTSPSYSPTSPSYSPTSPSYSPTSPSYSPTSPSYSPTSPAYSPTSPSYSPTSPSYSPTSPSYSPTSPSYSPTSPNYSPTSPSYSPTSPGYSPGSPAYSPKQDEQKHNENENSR

[4] = residue-specific, 1 to 1 binding fit of NMR titration

Ess1 (from UniProt P22696), sequence (P22696 whole entry): as the sequence (P22696 whole entry R8S) above, with S8R counted along it

CC(=O)N[C@@H](C)C(=O)N[C@@H](CO)C(=O)N[C@@H](Cc1ccc(O)cc1)C(=O)N[C@@H](CO)C(=O)N1CCC[C@H]1C(=O)N[C@H](C(=O)N[C@@H](COP(=O)(O)O)C(=O)N1CCC[C@H]1C(=O)N[C@@H](CO)C(=O)N[C@@H](Cc1ccc(O)cc1)C(=O)N[C@@H](CO)C(N)=O)[C@@H](C)O [1R] (Ac-ASYSPT[pS]PSYS-NH2)
IC50 (Ess1 [1]): 259 ± 33 µM | Normalized Anisotropy (Ess1 [1]; [1R CTD] 21 μM): 0.9587 | Normalized Anisotropy (Ess1 [1]; [1R CTD] 42 μM): 0.9533 | Normalized Anisotropy (Ess1 [1]; [1R CTD] 84 μM): 0.9581 | Normalized Anisotropy (Ess1 [1]; [1R CTD] 280 μM): 0.8033 | Normalized Anisotropy (Ess1 [1]; [1R CTD] 336 μM): 0.7637 | Normalized Anisotropy (Ess1 [1]; [1R CTD] 560 μM): 0.6982 | Kd (Ess1 [2]): 155 µM | Kd, Ess1 residue 16 (Ess1 [2]; [4]): 119.2 µM | Kd, Ess1 residue 17 (Ess1 [2]; [4]): 111.1 µM | Kd, Ess1 residue 18 (Ess1 [2]; [4]): 151.9 µM | Kd, Ess1 residue 19 (Ess1 [2]; [4]): 153.7 µM | Kd, Ess1 residue 23 (Ess1 [2]; [4]): 148.5 µM | Kd, Ess1 residue 25 (Ess1 [2]; [4]): 124.8 µM | Kd, Ess1 residue 26 (Ess1 [2]; [4]): 196.0 µM | Kd, Ess1 residue 27 (Ess1 [2]; [4]): 128.9 µM | Kd, Ess1 residue 28 (Ess1 [2]; [4]): 161.3 µM | Kd, Ess1 residue 29 (Ess1 [2]; [4]): 141.4 µM | Kd, Ess1 residue 30 (Ess1 [2]; [4]): 103.1 µM | Kd, Ess1 residue 34 (Ess1 [2]; [4]): 233.3 µM | Kd, Ess1 residue 35 (Ess1 [2]; [4]): 274.5 µM | Kd, Ess1 residue 37 (Ess1 [2]; [4]): 153.0 µM | Kd, Ess1 residue 38 (Ess1 [2]; [4]): 102.8 µM | Kd, Ess1 residue 39 (Ess1 [2]; [4]): 153.9 µM | Kd, Ess1 residue 40 (Ess1 [2]; [4]): 157.5 µM | Kd, Ess1 residue 48 (Ess1 [2]; [4]): 156.8 µM | Kd, Ess1 residue 49 (Ess1 [2]; [4]): 216.2 µM | Kd, Ess1 residue 52 (Ess1 [2]; [4]): 132.6 µM | Kd, Ess1 residue 58 (Ess1 [2]; [4]): 96.2 µM | Kd, Ess1 residue 59 (Ess1 [2]; [4]): 156.4 µM | Kd, Ess1 residue 64 (Ess1 [2]; [4]): 134.1 µM | Kd, Ess1 residue 70 (Ess1 [2]; [4]): 111.0 µM | Kd, Ess1 residue 73 (Ess1 [2]; [4]): 89.4 µM | Kd, Ess1 residue 84 (Ess1 [2]; [4]): 119.4 µM | Kd, Ess1 residue 87 (Ess1 [2]; [4]): 180.8 µM | Kd, Ess1 residue 123 (Ess1 [2]; [4]): 227.8 µM | Kd, Ess1 residue 130 (Ess1 [2]; [4]): 175.2 µM | Kd, Ess1 residue 131 (Ess1 [2]; [4]): 207.7 µM | Kd, Ess1 residue 133 (Ess1 [2]; [4]): 166.8 µM | Kd, Ess1 residue 137 (Ess1 [2]; [4]): 128.3 µM | Kd, Ess1 residue 145 (Ess1 [2]; [4]): 205.8 µM | Kd, Ess1 residue 146 (Ess1 [2]; [4]): 235.1 µM | Kd, Ess1 residue 149 (Ess1 [2]; [4]): 100.8 µM | Kd, Ess1 residue 150 (Ess1 [2]; [4]): 113.4 µM | Kd, Ess1 residue 157 (Ess1 [2]; [4]): 151.8 µM | Kd, Ess1 residue 158 (Ess1 [2]; [4]): 122.1 µM | Kd, Ess1 residue 159 (Ess1 [2]; [4]): 176.3 µM | Kd, Ess1 residue 162 (Ess1 [2]; [4]): 71.8 µM | Kd, Ess1 residue 164 (Ess1 [2]; [4]): 188.7 µM

CC(=O)N[C@@H](Cc1ccc(O)cc1)C(=O)N[C@@H](CO)C(=O)N1CCC[C@H]1C(=O)N[C@H](C(=O)N[C@@H](COP(=O)(O)O)C(=O)N1CCC[C@H]1C(=O)N[C@@H](CO)C(=O)N[C@@H](Cc1ccc(O)cc1)C(=O)N[C@@H](CO)C(=O)N1CCC[C@H]1C(=O)N[C@H](C(=O)N[C@@H](COP(=O)(O)O)C(=O)N1CCC[C@H]1C(=O)N[C@@H](CO)C(N)=O)[C@@H](C)O)[C@@H](C)O [2R]
IC50 (Ess1 [1]): 59 µM | Normalized Anisotropy (Ess1 [1]; [2R CTD] 29.25 μM): 0.8399 | Normalized Anisotropy (Ess1 [1]; [2R CTD] 58.5 μM): 0.6905 | Normalized Anisotropy (Ess1 [1]; [2R CTD] 234 μM): 0.4873

Ess1 (from UniProt P22696)
Kd [3]: 60 µM
